ChEMBL document CHEMBL3861981 (J Med Chem, 2016)

How the values were obtained:
Hepatitis C virus [1] = assay: Antiviral activity against HCV genotype 1b Con1 expressing NS3 protease infected in human Huh7.5 cells assessed as reduction in viral RNA replication by luciferase reporter gene assay; format: functional, cell-based, Hepacivirus hominis; conditions: genotype 1b Con1, Huh-7
[2] = Half life in human liver microsomes; format: ADME
[3] = Clearance in cynomolgus monkey plasma at 3 mg/kg, iv administered as 5 mins infusion measured up to 24 hrs post dose by LC/MS/MS analysis; format: ADME, organism-based, Macaca fascicularis
[4] = AUC in cynomolgus monkey plasma at 10 mg/kg administered via oral gavage measured up to 24 hrs post dose by LC/MS/MS analysis; format: ADME, organism-based, Macaca fascicularis; set-up: dose 10 mg/kg, time < 24 hr, route oral; conditions: plasma
[5] = Cytotoxicity against human HepG2 cells assessed as decrease in cell viability
[6] = Toxicity in cynomolgus monkey assessed as gastrointestinal irritation at 10 mg/kg, po administered through gavage; format: organism-based, Macaca fascicularis; conditions: in vivo
[7] = Cardiotoxicity in anesthetized rabbit assessed as effect on QRS interval at 30 mg/kg, iv administered as 10 mins infusion measured up to 60 mins post dose by electrophysiology assay; format: toxicity, organism-based, Oryctolagus cuniculus; conditions: in vivo
[8] = Cardiotoxicity in anesthetized rabbit assessed as prolongation of QTcf interval at 30 mg/kg, iv administered as 10 mins infusion by electrophysiology assay; format: toxicity, organism-based, Oryctolagus cuniculus; conditions: in vivo
[9] = Cardiotoxicity in anesthetized rabbit assessed as prolongation of QTcv interval at 30 mg/kg, iv administered as 10 mins infusion by electrophysiology assay; format: toxicity, organism-based, Oryctolagus cuniculus; conditions: in vivo
[10] = Cardiotoxicity in dog assessed as effect on sinoatrial node recovery time at 30 to 100 mg/kg administered as single dose by electrophysiology assay; format: toxicity, organism-based, Canis lupus familiaris; conditions: in vivo
[11] = Inhibition of recombinant full length HCV genotype 1a H77 NS3/4A protease preincubated for 30 mins followed by substrate addition measured by FRET assay; set-up: species or system Hepatitis C virus (isolate H77)
[12] = Inhibition of recombinant full length HCV genotype 2a HC-J6 NS3/4A protease preincubated for 30 mins followed by substrate addition measured by FRET assay; set-up: species or system Hepatitis C virus subtype 2a
Hepatitis C virus [13] = assay: Antiviral activity against HCV genotype 1a H77 in HCV replicon cells assessed as reduction in viral RNA replication by luciferase reporter gene assay
[14] = Drug uptake in rabbit heart atrium measured after 60 mins; format: ADME, Oryctolagus cuniculus, Cardiac atrium; conditions: read-out: Drug uptake

## COc1cnc(O[C@@H]2C[C@@H](C(=O)N[C@]3(C(=O)NS(=O)(=O)C4CC4)C[C@H]3C3CC3)N(C(=O)[C@@H](NC(=O)O[C@H](C)C(F)(F)F)C3CCCCC3)C2)c2cc(Cl)ccc12
Hepatitis C virus [1]
  EC50: 4.5 nM
[2]
  half-life: 1.08 h
[3]
  clearance: 9.4 mL/min/kg
[4]
  AUC at 24 h: 4.4 µM·h
[5]
  CC50: 8000 to 14000 nM
[6]
  Activity: Non-Toxic
[7]
  Activity: Non-Toxic
[8]
  Activity: Toxic
[9]
  Activity: Non-Toxic
[10]
  Activity: Non-Toxic
[11]
  IC50: 1.5 nM
[12]
  IC50: 38 nM
Hepatitis C virus [13]
  EC50: 4.5 nM
[14]
  concentration at 1 h: 204 µM
